Source: US8450494B2, “Disubstituted benzamide derivatives as glucokinase (GK) activators” (Cadila Healthcare Limited, priority 2010, dated 2013)

Target: T1, glucokinase (GK) enzyme (Homo sapiens, UniProt P35557)
T1 sequence (P35557 1-465): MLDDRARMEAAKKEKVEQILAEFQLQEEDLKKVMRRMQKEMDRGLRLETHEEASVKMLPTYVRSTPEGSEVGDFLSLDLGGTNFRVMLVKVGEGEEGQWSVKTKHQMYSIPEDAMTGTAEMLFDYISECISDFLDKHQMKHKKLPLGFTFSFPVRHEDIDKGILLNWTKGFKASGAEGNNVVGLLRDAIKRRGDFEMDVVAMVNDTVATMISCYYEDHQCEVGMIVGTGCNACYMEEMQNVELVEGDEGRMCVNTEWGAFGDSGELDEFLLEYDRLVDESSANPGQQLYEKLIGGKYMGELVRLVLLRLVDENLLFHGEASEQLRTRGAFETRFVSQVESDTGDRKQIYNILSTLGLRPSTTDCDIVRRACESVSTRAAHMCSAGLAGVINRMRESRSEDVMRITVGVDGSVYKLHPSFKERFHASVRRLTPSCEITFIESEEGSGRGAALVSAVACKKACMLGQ
Experiment: In-vitro glucokinase (GK) enzyme activation assay (coupled with glucose-6-phosphate dehydrogenase, absorbance at 340)
Assay type: biochemical
Conditions: glucose 2.5 mM, ATP 1 mM; for activity at 0.1 µM / activity at 1 µM / activity at 5 µM / activity at 10 µM: read-out: % of GK activity wrt DMSO; for EC50: GK activation
Description: The compound of the invention was incubated with glucokinase (GK) enzyme (0.2 units) for 10 minutes in assay buffer at 26° C. After incubation, addition of glucose-6-phosphate dehydrogenase (2.5 units), ATP (1 mM) and glucose (2.5 mM). Absorbance is measured at 340 nm for 15 minutes with 10 second interval using UV transparent plate in kinetic mode on Spectramax-190 at 30° C.

Row | Compound | activity at 0.1 µM (compound 0.1 uM) [%] | activity at 1 µM (compound 1 uM) [%] | activity at 5 µM (compound 5 uM) [%] | activity at 10 µM (compound 10 uM) [%] | EC50 [nM] | % of GK activity wrt DMSO (compound 0.1 uM) [%] | % of GK activity wrt DMSO (compound 1 uM) [%] | % of GK activity wrt DMSO (compound 5 uM) [%] | % of GK activity wrt DMSO (compound 10 uM) [%]
1 | CCOC(=O)c1csc(NC(=O)c2cc(Oc3ccc(-c4nnc(C)o4)cc3)cc(OC(C)COC)c2)n1 (stereo not drawn) [Example 2.19, Ethyl 2-{3-[(1-methoxypropan-2-yl)oxy]-5-[4-(5-methyl-1,3,4-oxadiazol-2-yl)phenoxy]benzamido}thiazole-4-carboxylate] | 106 | 188 | 318 | 344 | – | – | – | – | –
2 | C=CCCOc1cc(Oc2ccc(-c3nnc(C)o3)cc2)cc(C(=O)Nc2nc(C)cs2)c1 [Example 2.12, 3-(But-3-en-1-yloxy)-5-(4-(5-methyl-1,3,4-oxadiazol-2-yl)phenoxy)-N-(4-methylthiazol-2-yl)benzamide] | 140 | 176 | 302 | 144 | – | – | – | – | –
3 | COCC(C)Oc1cc(Oc2ccc(-c3nnc(C)o3)cc2)cc(C(=O)Nc2ncc(C)s2)c1 (stereo not drawn) [Example 2.9, 3-((1-Methoxypropan-2-yl)oxy)-5-(4-(5-methyl-1,3,4-oxadiazol-2-yl)phenoxy)-N-(5-methylthiazol-2-yl)benzamide] | 251 | 278 | 283 | 279 | – | – | – | – | –
4 | COCC(C)Oc1cc(Oc2ccc(-c3nnc(C)o3)cc2)cc(C(=O)Nc2nc(C(=O)O)cs2)c1 (stereo not drawn) [Example 2.17, 2-{3-[(1-Methoxypropan-2-yl)oxy]-5-[4-(5-methyl-1,3,4-oxadiazol-2-yl)phenoxy]benzamido}thiazole-4-carboxylic acid] | 113 | 170 | 306 | 350 | – | – | – | – | –
5 | COCC(C)Oc1cc(Oc2cccc(-c3nnc(C)o3)c2)cc(C(=O)Nc2nccs2)c1 (stereo not drawn) [Example 2.21, 3-((1-Methoxypropan-2-yl)oxy)-5-(3-(5-methyl-1,3,4-oxadiazol-2-yl)phenoxy)-N-(thiazole-2-yl)benzamide] | 179 | 287 | 318 | 293 | – | – | – | – | –
6 | CCc1nnc(-c2ccc(Oc3cc(OC(C)COC)cc(C(=O)Nc4nccs4)c3)cc2)o1 (stereo not drawn) [Example 2.25, 3-(4-(5-Ethyl-1,3,4-oxadiazol-2-yl)phenoxy)-5-((1-methoxypropan-2-yl)oxy)-N-(thiazol-2-yl)benzamide] | 224 | 384 | 439 | 418 | – | – | – | – | –
7 | CCOC(=O)Cc1csc(NC(=O)c2cc(Oc3ccc(-c4nnc(C)o4)cc3)cc(OC(C)COC)c2)n1 (stereo not drawn) [Example 2.7, Ethyl 2-(2-(3-((1-methoxypropan-2-yl)oxy)-5-(4-(5-methyl-1,3,4-oxadiazol-2-yl)phenoxy)benzamido)thiazol-4-yl)acetate] | 288 | 349 | 353 | 345 | – | – | – | – | –
8 | Cc1csc(NC(=O)c2cc(OCC3CCCCC3)cc(Oc3ccc(-c4nnc(C)o4)cc3)c2)n1 [Example 2.3, 3-(Cyclohexylmethoxy)-5-(4-(5-methyl-1,3,4-oxadiazol-2-yl)phenoxy)-N-(4-methylthiazol-2-yl)benzamide] | 123 | 137 | 148 | 150 | – | – | – | – | –
9 | COCC(C)Oc1cc(Oc2ccc(-c3nnc(CC(C)C)o3)cc2)cc(C(=O)Nc2nccs2)c1 (stereo not drawn) [Example 2.22, 3-(4-(5-Isobutyl-1,3,4-oxadiazol-2-yl)phenoxy)-5-((1-methoxypropan-2-yl)oxy)-N-(thiazol-2-yl)benzamide] | 153 | 323 | 436 | 418 | – | – | – | – | –
10 | COCC(C)Oc1ccc(Oc2ccc(-c3nnc(C)o3)cc2)cc1C(=O)Nc1nccs1 (stereo not drawn) [Example 1.3, 2-(1-Methoxypropan-2-yloxy)-5-(4-(5-methyl-1,3,4-oxadiazol-2-yl)phenoxy)-N-(thiazol-2-yl)benzamide] | 99.8 | 96.8 | 110 | 107 | – | – | – | – | –
11 | C=CCOc1cc(Oc2ccc(-c3nnc(C)o3)cc2)cc(C(=O)Nc2nccs2)c1 [Example 2.4, 3-(Allyloxy)-5-(4-(5-methyl-1,3,4-oxadiazol-2-yl)phenoxy)-N-(thiazol-2-yl)benzamide] | 240 | 284 | 324 | 311 | 64 | – | – | – | –
12 | Cc1nnc(-c2ccc(Oc3cc(OCC(C)C)cc(C(=O)Nc4nccs4)c3)cc2)o1 [Example 2.5, 3-Isobutoxy-5-(4-(5-methyl-1,3,4-oxadiazol-2-yl)phenoxy)-N-(thiazol-2-yl)benzamide] | 195 | 256 | 282 | 278 | 103 | – | – | – | –
13 | CCOC(=O)c1cnc(NC(=O)c2cc(Oc3ccc(-c4nnc(C)o4)cc3)cc(OC(C)COC)c2)s1 (stereo not drawn) [Example 2.16, Ethyl 2-{3-[(1-methoxypropan-2-yl)oxy]-5-[4-(5-methyl-1,3,4-oxadiazol-2-yl)phenoxy]benzamido}thiazole-5-carboxylate] | 101 | 144 | 201 | 205 | – | – | – | – | –
14 | Cc1nnc(-c2ccc(Oc3cc(OCC4CCCCC4)cc(C(=O)Nc4nccs4)c3)cc2)o1 [Example 2.2, 3-(Cyclohexylmethoxy)-5-(4-(5-methyl-1,3,4-oxadiazol-2-yl)phenoxy)-N-(thiazol-2-yl)benzamide] | 146 | 178 | 193 | 192 | 316 | – | – | – | –
15 | COC[C@H](C)Oc1cc(Oc2ccc(-c3nnc(C)o3)cc2)cc(C(=O)Nc2nccs2)c1 [Example 2.1, (S)-3-(1-Methoxypropan-2-yloxy)-5-(4-(5-methyl-1,3,4-oxadiazol-2-yl)phenoxy)-N-(thiazol-2-yl)benzamide] | 271 | 267 | 271 | 282 | 14 | – | – | – | –
16 | COC[C@@H](C)Oc1cc(Oc2ccc(-c3nnc(C)o3)cc2)cc(C(=O)Nc2nccs2)c1 [Example 2.15, (R)-3-(1-Methoxypropan-2-yloxy)-5-(4-(5-methyl-1,3,4-oxadiazol-2-yl)phenoxy)-N-(thiazol-2-yl)benzamide] | 105 | 164 | 239 | 266 | – | – | – | – | –
17 | Cc1nnc(-c2ccc(Oc3cc(OCC4CCOCC4)cc(C(=O)Nc4nccs4)c3)cc2)o1 [Example 2.6] | – | – | – | – | – | 128.2 | 196.4 | 251.8 | 249.3
18 | COCC(C)Oc1cc(Oc2ccc(-c3nnc(C)o3)cc2)cc(C(=O)Nc2nc(C)cs2)c1 (stereo not drawn) [Example 2.10, 3-((1-Methoxypropan-2-yl)oxy)-5-(4-(5-methyl-1,3,4-oxadiazol-2-yl)phenoxy)-N-(4-methylthiazol-2-yl)benzamide] | 310 | 370 | 368 | 356 | – | – | – | – | –
19 | Cc1nnc(-c2ccc(Oc3cc(OC(C)C4CC4)cc(C(=O)Nc4nccs4)c3)cc2)o1 (stereo not drawn) [Example 1.4, 3-(1-Cyclopropylethoxy)-5-(4-(5-methyl-1,3,4-oxadiazol-2-yl)phenoxy)-N-(thiazol-2-yl)benzamide] | 282 | 313 | 314 | 311 | 23 | – | – | – | –
20 | Cc1nnc(-c2ccc(Oc3cc(OCC4CCC5(CC5)C4)cc(C(=O)Nc4nccs4)c3)cc2)o1 (stereo not drawn) [Example 1.6, 3-(4-(5-Methyl-1,3,4-oxadiazol-2-yl)phenoxy)-5-(spiro[2.4]heptan-5-ylmethoxy)-N-(thiazol-2-yl)benzamide] | 134 | 178 | 183 | 165 | – | – | – | – | –
21 | COCC(C)Oc1cc(Oc2ccc(-c3nnc(C)o3)cc2)cc(C(=O)Nc2ncc(C(=O)O)s2)c1 (stereo not drawn) [Example 2.18, 2-{3-[(1-Methoxypropan-2-yl)oxy]-5-[4-(5-methyl-1,3,4-oxadiazol-2-yl)phenoxy]benzamido}thiazole-5-carboxylic acid] | 105 | 149 | 251 | 260 | – | – | – | – | –
22 | Cc1nnc(-c2ccc(Oc3cc(OCC45CC6CC(CC(C6)C4)C5)cc(C(=O)Nc4nccs4)c3)cc2)o1 [Example 1.9, 3-(4-(5-Methyl-1,3,4-oxadiazol-2-yl)phenoxy)-5-(admantanemethoxy)-N-(thiazol-2-yl)benzamide] | – | – | – | – | – | 121.83 | 137.7 | 141.3 | 153.4
